Test results taken from US20230346815A1, “LMP7-SELECTIVE INHIBITORS FOR THE TREATMENT OF BLOOD DISORDERS AND SOLID TUMORS” (Merck Patent GmbH, priority 2020, published 2023).
Entries after “also recorded” stand apart in the source; their conditions may differ.

Legend:
OPM-2 = assay: Efficacy in the multiple myeloma xenograft model OPM-2; assay type: in vivo, mouse; details: t(4;14)-positive OPM-2 xenograft; compound 9 10 mg/kg per os once daily; vs bortezomib 0.5 mg/kg i.v., ixazomib 3 mg/kg per os, carfilzomib 2 mg/kg i.p., each twice per week; FIG. 1
Experimental: The human multiple myeloma cell line OPM-2 was obtained from the German Collection of Microorganisms and Cell Cultures GmbH (DSMZ). 100 μL of a suspension of 5 million cells in phosphate-buffered saline (PBS) mixed 1:1 with Matrigel (Becton Dickinson) was injected per mouse. Bortezomib was formulated in Mannitol (Merck KGaA) in 0.9% NaCl and applied intravenously (i.v.) to mice at a dose of 0.5 mg/kg twice per week. Ixazomib was formulated in 5% KLEPTOSE® in water and applied orally (per os) to mice at a dose of 3 mg/kg twice per week. Carfilzomib was formulated in 5% KLEPTOSE® (AppliChem) in 50 mM sodium citrate buffer and applied by intraperitoneal (i.p.) injection to mice at a dose of 2 mg/kg twice per week. Compound 9 was formulated in 0.5% METHOCEL™ Premium K4M (Colorcon) and 0.25% Tween® 20 in PBS at applied per os to mice once daily at a dose of 10 mg/kg. Mean tumor volume and standard error of the mean (SEM) are indicated.

NCI-H929 = assay: Efficacy in the multiple myeloma xenograft model NCI-H929; assay type: in vivo, mouse; details: t(4;14)-positive NCI-H929 xenograft, compound 9 10 mg/kg per os once daily
Experimental: The human multiple myeloma cell line NCI-H929 was obtained from the American Type Culture Collection (ATCC). 100 μL of a suspension of 5 million cells in PBS mixed 1:1 with Matrigel was injected per mouse. Bortezomib, carfilzomib and compound 9 were formulated and applied as described in Example 1. Mean tumor volume and SEM are indicated.
NCI-H929 xenograft tumors were established as described in Example 2. Compound 9 and ixazomib were formulated and applied as described in Example 1.

MM.1S = assay: Efficacy in the multiple myeloma xenograft model MM.1S; assay type: in vivo, mouse; details: t(14;16)-positive MM.1S xenograft; compound 9 10 mg/kg per os once daily; vs bortezomib, ixazomib, carfilzomib 3 mg/kg i.v. twice per week; FIG. 4
Experimental: The human multiple myeloma cell line MM.1S was obtained from the ATCC. 100 μL of a suspension of 5 million cells in PBS was injected per mouse. Bortezomib, ixazomib and compound 9 were formulated and applied as described in Example 1. Carfilzomib was formulated as described in Example 1 and applied intravenously (i.v.) to mice at a dose of 3 mg/kg twice per week.

RPMI 8826 = assay: Efficacy in the multiple myeloma xenograft model RPMI 8826; assay type: in vivo, mouse; details: t(14;16)-positive RPMI 8826 xenograft; compound 9 10 mg/kg per os once daily; vs bortezomib, carfilzomib, ixazomib; FIG. 5
Experimental: The human multiple myeloma cell line RPMI 8826 was obtained from the ATCC. 100 μL of a suspension of 5 million cells in PBS mixed 1:1 with Matrigel was injected per mouse. Bortezomib, carfilzomib, ixazomib and compound 9 were formulated and applied as described in Example 1.

Caspase-3/-7 activity = assay: Caspase 3/7 activity in MM.1S xenograft tumors in vivo; parameters: species or system mouse; details: compound 9 applied once per os 10 mg/kg, vs vehicle control and bortezomib, carfilzomib, ixazomib single dose, FIG. 7
Experimental: MM.1S xenograft tumors samples from the same experiment described in Example 6 were used for assessment of Caspase-3/-7 activity as an indication of tumor cell apoptosis. 50 μg of tumor lysate protein in a total volume of 50 μL was mixed with the Caspase-Glo®3/7 Reagent (Promega) in 96-well plates according to the manufacturer's instruction. Luminescence was measured using an Envision 2104 plate reader (PerkinElmer).

LMP7 [1] = molecular target: T1, LMP7 (Homo sapiens, UniProt P20618+P28062); assay: LMP7 activity in MM.1S xenograft tumors in vivo, cleavage of (Ac-ANW)2R110; parameters: from tissue; host or cells: MM.1S xenograft tumor lysate (tumors grown in mice); species or system mouse; details: compound 9 applied once per os 10 mg/kg, vs control and bortezomib, carfilzomib, ixazomib single dose, FIG. 6
Experimental: MM.1S xenograft tumors were established as described in Example 4. Compound 9, bortezomib, carfilzomib and ixazomib were formulated as described in Example 1. Compound 9 was applied once per os to mice at a dose of 10 mg/kg. Bortezomib was applied once i.v. to mice at a dose of 0.5 mg/kg. Ixazomib was applied once per os to mice at a dose of 3 mg/kg. Carfilzomib was applied once i.v. at a dose of 3 mg/kg. MM1S tumors were collected immediately following mouse euthanasia and lysed as described previously (Buchstaller et al., 2019). For assessment of LMP7 activity, 10 μg of tumor lysate protein in a total volume of 50 μL was mixed in 96-well plates with 50 μl of a buffer containing 100 mM HEPES pH 7.6, 60 mM MgSO4, 1 mM EDTA, 40 μg/ml digitonin and the fluorogenic LMP7 substrate (Ac-ANW)2R110 (from Biomol) at a final concentration of 10 μM. Plates were then shaken briefly, incubated for 60 min at 37° C. and then centrifuged at 300×g. Fluorescence (excitation 485 nm, emission 535 nm) was measured using an EnVision 2104 plate reader (PerkinElmer).

LMP7 [2] = molecular target: T1, LMP7; details: as previously described, Singh et al., 2011; cited from earlier work

Row | SMILES | in vivo anti-tumor activity (mean tumor volume) (OPM-2) | in vivo anti-tumor activity (mean tumor volume) (NCI-H929; vs bortezomib and carfilzomib, FIG. 2) | in vivo anti-tumor activity (mean tumor volume) (NCI-H929; vs ixazomib 3 mg/kg per os twice per week, FIG. 3) | in vivo anti-tumor activity (mean tumor volume) (MM.1S) | in vivo anti-tumor activity (mean tumor volume) (RPMI 8826) | Caspase-3/-7 activity (induction of apoptosis) in tumor lysate (Caspase-3/-7 activity) | LMP7 activity in tumor lysate (LMP7 [1]) | LMP7 selectivity (LMP7 [2])
1 | O=C(N[C@@H](Cc1coc2ccccc12)B(O)O)[C@@H]1C[C@H]2CC[C@@H]1O2 [Compound 9, [(1R)-2-(1-benzofuran-3-yl)-1-{[(1S,2R,4R)-7-oxabicyclo[2.2.1]heptan-2-yl]formamido}ethyl]boronic acid] | increased efficacy as compared to bortezomib, carfilzomib, and ixazomib | increased efficacy as compared to bortezomib and carfilzomib | comparable activity of compound 9 as compared to the pan-proteasome inhibitor ixazomib | increased anti-tumor activity of compound 9 as compared to bortezomib and carfilzomib, and comparable activity as compared to ixazomib | increased in vivo activity of compound 9 as compared to ixazomib and carfilzomib, and comparable activity when compared to bortezomib | longer than compared to the pan-proteasome inhibitors; also recorded: significant induction of apoptosis | stronger and more prolonged than for the other pan-proteasome inhibitors tested; also recorded: significant reduction of enzymatic function of LMP7 | –
2 | CC1=C(C(=O)N[C@H](C)C(=O)N[C@@H](Cc2c[nH]c3ccccc23)C(=O)N[C@@H](Cc2ccccc2)C(=O)[C@@]2(C)CO2)Cc2ccccc21 [PR-924] | – | – | – | – | – | – | – | 100 fold
